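A five-concentration, 48-hour dose response in 96-well plates underlies each endpoint, interpolated linearly between surrounding concentrations. GI50 = concentration required for 50% inhibition of growth. TGI is the concentration that stops growth completely.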
What was measured:
Assay in all cases: NCI-60 cell line screen, 48 h
786-0 renal = system: 786-0 renal
A498 renal = system: A498 renal
A549 NSCLC = system: A549 NSCLC
ACHN renal = system: ACHN renal
BT-549 breast = system: BT-549 breast
CAKI-1 renal = system: CAKI-1 renal
COLO 205 colon = system: COLO 205 colon
DU-145 prostate = system: DU-145 prostate
EKVX NSCLC = system: EKVX NSCLC
HCC-2998 colon = system: HCC-2998 colon
HCT-116 colon = system: HCT-116 colon
HCT-15 colon = system: HCT-15 colon
HL-60(TB) leukemia = system: HL-60(TB) leukemia
HOP-62 NSCLC = system: HOP-62 NSCLC
HS 578T breast = system: HS 578T breast
HT29 colon = system: HT29 colon
IGROV1 ovarian = system: IGROV1 ovarian
K-562 leukemia = system: K-562 leukemia
KM12 colon = system: KM12 colon
LOX IMVI melanoma = system: LOX IMVI melanoma
M14 melanoma = system: M14 melanoma
MALME-3M melanoma = system: MALME-3M melanoma
MCF7 breast = system: MCF7 breast
MDA-MB-231 breast = system: MDA-MB-231 breast
MDA-MB-435 = system: MDA-MB-435
MOLT-4 leukemia = system: MOLT-4 leukemia
NCI-H226 lung = system: NCI-H226 lung
NCI-H23 lung = system: NCI-H23 lung
NCI-H460 lung = system: NCI-H460 lung
NCI-H522 lung = system: NCI-H522 lung
NCI/ADR-RES ovarian = system: NCI/ADR-RES ovarian
OVCAR-3 ovarian = system: OVCAR-3 ovarian
OVCAR-4 ovarian = system: OVCAR-4 ovarian
OVCAR-5 ovarian = system: OVCAR-5 ovarian
OVCAR-8 ovarian = system: OVCAR-8 ovarian
PC-3 prostate = system: PC-3 prostate
RPMI-8226 leukemia = system: RPMI-8226 leukemia
SF-268 CNS = system: SF-268 CNS
SF-295 CNS = system: SF-295 CNS
SF-539 CNS = system: SF-539 CNS
SK-MEL-2 melanoma = system: SK-MEL-2 melanoma
SK-MEL-28 melanoma = system: SK-MEL-28 melanoma
SK-MEL-5 melanoma = system: SK-MEL-5 melanoma
SK-OV-3 ovarian = system: SK-OV-3 ovarian
SN12C renal = system: SN12C renal
SNB-19 CNS = system: SNB-19 CNS
SNB-75 CNS = system: SNB-75 CNS
SR leukemia = system: SR leukemia
SW-620 colon = system: SW-620 colon
TK-10 renal = system: TK-10 renal
U251 CNS = system: U251 CNS
UACC-257 melanoma = system: UACC-257 melanoma
UACC-62 melanoma = system: UACC-62 melanoma
UO-31 renal = system: UO-31 renal
CCRF-CEM leukemia = system: CCRF-CEM leukemia
HOP-92 NSCLC = system: HOP-92 NSCLC

## COc1cc(-n2cc(-c3ccc(Cl)cc3)[nH]c2=O)cc(OC)c1OC
786-0 renal
  GI50: 15.2 µM
  TGI: 35.3 µM
A498 renal
  GI50: 19.8 µM
  TGI: 44.8 µM
A549 NSCLC
  GI50: 34.6 µM
  TGI: > 100 µM
ACHN renal
  GI50: 21.6 µM
  TGI: 46 µM
BT-549 breast
  GI50: 27.1 µM
  TGI: 71.8 µM
CAKI-1 renal
  GI50: 16.2 µM
  TGI: 35.6 µM
COLO 205 colon
  GI50: > 100 µM
  TGI: > 100 µM
DU-145 prostate
  GI50: 57.4 µM
  TGI: > 100 µM
EKVX NSCLC
  GI50: 34.1 µM
  TGI: > 100 µM
HCC-2998 colon
  GI50: 47.4 µM
  TGI: > 100 µM
HCT-116 colon
  GI50: 35.4 µM
  TGI: > 100 µM
HCT-15 colon
  GI50: > 100 µM
  TGI: > 100 µM
HL-60(TB) leukemia
  GI50: > 100 µM
  TGI: > 100 µM
HOP-62 NSCLC
  GI50: 30.8 µM
  TGI: 78.8 µM
HS 578T breast
  GI50: 76.6 µM
  TGI: > 100 µM
HT29 colon
  GI50: 43.8 µM
  TGI: > 100 µM
IGROV1 ovarian
  GI50: 35.5 µM
  TGI: > 100 µM
K-562 leukemia
  GI50: > 100 µM
  TGI: > 100 µM
KM12 colon
  GI50: 41.3 µM
  TGI: > 100 µM
LOX IMVI melanoma
  GI50: 59.9 µM
  TGI: > 100 µM
M14 melanoma
  GI50: 94.1 µM
  TGI: > 100 µM
MALME-3M melanoma
  GI50: 32 µM
  TGI: 77.4 µM
MCF7 breast
  GI50: 35 µM
  TGI: > 100 µM
MDA-MB-231 breast
  GI50: 23.1 µM
  TGI: 55.4 µM
MDA-MB-435
  GI50: 88.4 µM
  TGI: > 100 µM
MOLT-4 leukemia
  GI50: > 100 µM
  TGI: > 100 µM
NCI-H226 lung
  GI50: 33.2 µM
  TGI: 83.3 µM
NCI-H23 lung
  GI50: 49.5 µM
  TGI: > 100 µM
NCI-H460 lung
  GI50: 39.6 µM
  TGI: > 100 µM
NCI-H522 lung
  GI50: 19.9 µM
  TGI: 54 µM
NCI/ADR-RES ovarian
  GI50: 23.1 µM
  TGI: 63.6 µM
OVCAR-3 ovarian
  GI50: 21 µM
  TGI: 50.1 µM
OVCAR-4 ovarian
  GI50: 25.9 µM
  TGI: 62.9 µM
OVCAR-5 ovarian
  GI50: 22.7 µM
  TGI: 54.1 µM
OVCAR-8 ovarian
  GI50: 26.5 µM
  TGI: 68.9 µM
PC-3 prostate
  GI50: 16.4 µM
  TGI: 51.2 µM
RPMI-8226 leukemia
  GI50: 12.6 µM
  TGI: > 100 µM
SF-268 CNS
  GI50: 30.4 µM
  TGI: 88.6 µM
SF-295 CNS
  GI50: 30.9 µM
  TGI: > 100 µM
SF-539 CNS
  GI50: 23.8 µM
  TGI: 49.2 µM
SK-MEL-2 melanoma
  GI50: 72.6 µM
  TGI: > 100 µM
SK-MEL-28 melanoma
  GI50: > 100 µM
  TGI: > 100 µM
SK-MEL-5 melanoma
  GI50: 31.1 µM
  TGI: > 100 µM
SK-OV-3 ovarian
  GI50: 35.8 µM
  TGI: 93 µM
SN12C renal
  GI50: 37.7 µM
  TGI: > 100 µM
SNB-19 CNS
  GI50: 32.6 µM
  TGI: > 100 µM
SNB-75 CNS
  GI50: 26.2 µM
  TGI: 50.5 µM
SR leukemia
  GI50: > 100 µM
  TGI: > 100 µM
SW-620 colon
  GI50: > 100 µM
  TGI: > 100 µM
TK-10 renal
  GI50: 18.5 µM
  TGI: 42.8 µM
U251 CNS
  GI50: 20.9 µM
  TGI: 45.1 µM
UACC-257 melanoma
  GI50: 46.8 µM
  TGI: > 100 µM
UACC-62 melanoma
  GI50: 23 µM
  TGI: 64.1 µM
UO-31 renal
  GI50: 22.5 µM
  TGI: 64.4 µM

## CC(=O)N=c1ccc2nc3c(cc(N)c4ccccc43)oc-2c1
786-0 renal
  GI50: 1.46 µM
  TGI: 2.93 µM
A498 renal
  GI50: 1.92 µM
  TGI: 6.87 µM
A549 NSCLC
  GI50: 1.08 µM
  TGI: 3.42 µM
ACHN renal
  GI50: 1.34 µM
  TGI: 2.62 µM
BT-549 breast
  GI50: 2.47 µM
  TGI: 7.46 µM
CAKI-1 renal
  GI50: 1.55 µM
  TGI: 3.17 µM
CCRF-CEM leukemia
  GI50: 0.7 µM
  TGI: 5.65 µM
COLO 205 colon
  GI50: 1.11 µM
  TGI: 2.44 µM
DU-145 prostate
  GI50: 1.66 µM
  TGI: 3.03 µM
EKVX NSCLC
  GI50: 1.52 µM
  TGI: 4.54 µM
HCC-2998 colon
  GI50: 0.503 µM
  TGI: 1.87 µM
HCT-116 colon
  GI50: 0.323 µM
  TGI: 1.24 µM
HCT-15 colon
  GI50: 0.935 µM
  TGI: 2.5 µM
HL-60(TB) leukemia
  GI50: 0.279 µM
  TGI: 6.8 µM
HOP-62 NSCLC
  GI50: 0.573 µM
  TGI: 1.83 µM
HOP-92 NSCLC
  GI50: 1.4 µM
  TGI: 4.94 µM
HS 578T breast
  TGI: > 23.8 µM
HT29 colon
  GI50: 2.09 µM
  TGI: 4.62 µM
IGROV1 ovarian
  GI50: 0.36 µM
  TGI: 1.89 µM
K-562 leukemia
  GI50: 0.389 µM
KM12 colon
  GI50: 1.44 µM
  TGI: 2.87 µM
M14 melanoma
  GI50: 1.58 µM
  TGI: 3.86 µM
MALME-3M melanoma
  GI50: 1.39 µM
  TGI: 2.84 µM
MCF7 breast
  GI50: 0.753 µM
  TGI: 2.4 µM
MDA-MB-231 breast
  GI50: 1.25 µM
  TGI: 3.92 µM
MDA-MB-435
  GI50: 0.207 µM
  TGI: 0.421 µM
MOLT-4 leukemia
  GI50: 0.353 µM
  TGI: 5.26 µM
NCI-H226 lung
  TGI: > 39.1 µM
NCI-H23 lung
  GI50: 1.27 µM
  TGI: 4.25 µM
NCI-H460 lung
  GI50: 1.85 µM
  TGI: 4.24 µM
NCI-H522 lung
  GI50: 1.44 µM
  TGI: 3.47 µM
NCI/ADR-RES ovarian
  GI50: 1.62 µM
  TGI: 4.95 µM
OVCAR-3 ovarian
  GI50: 0.207 µM
  TGI: 0.684 µM
OVCAR-4 ovarian
  GI50: 0.409 µM
  TGI: 1.64 µM
OVCAR-5 ovarian
  GI50: 1.8 µM
  TGI: 3.94 µM
OVCAR-8 ovarian
  GI50: 1.31 µM
  TGI: 3.6 µM
PC-3 prostate
  GI50: 1.05 µM
  TGI: 5.83 µM
RPMI-8226 leukemia
  GI50: 0.302 µM
  TGI: 1.76 µM
SF-268 CNS
  GI50: 1.66 µM
  TGI: 3.43 µM
SF-539 CNS
  GI50: 1.63 µM
  TGI: 3.05 µM
SK-MEL-2 melanoma
  GI50: 1.57 µM
  TGI: 3.34 µM
SK-MEL-28 melanoma
  GI50: 1.75 µM
  TGI: 3.26 µM
SK-MEL-5 melanoma
  GI50: 0.33 µM
  TGI: 1.35 µM
SK-OV-3 ovarian
  GI50: 1.92 µM
  TGI: 4.95 µM
SN12C renal
  GI50: 1.39 µM
  TGI: 2.9 µM
SNB-19 CNS
  GI50: 1.71 µM
  TGI: 3.46 µM
SNB-75 CNS
  GI50: 1.83 µM
  TGI: 3.34 µM
SR leukemia
  GI50: 1.67 µM
  TGI: > 21.2 µM
SW-620 colon
  GI50: 0.745 µM
  TGI: 2.39 µM
TK-10 renal
  GI50: 2.64 µM
  TGI: 6.34 µM
U251 CNS
  GI50: 1.43 µM
  TGI: 2.86 µM
UACC-257 melanoma
  GI50: 0.467 µM
  TGI: 1.91 µM
UACC-62 melanoma
  GI50: 1.41 µM
  TGI: 2.72 µM
UO-31 renal
  GI50: 1.03 µM
  TGI: 2.46 µM
